Data taken from US10106524B2, “2,3,4,5-tetrahydropyridin-6-amine and 3,4-dihydro-2H-pyrrol-5-amine compound inhibitors of beta-secretase” (Janssen Pharmaceutica NV, priority 2015, dated 2018).

Tests used:
[1] = target: T1, recombinant BACE1 protein (Homo sapiens, UniProt P56817); assay: BACE1 biochemical FRET based assay - Method 2; conditions: BACE1 0.04 μg/ml, 450 minutes, 20 μM substrate, pH 5.0; read-out: Biochemical FRET based assay- Method 2 pIC50 (converted)
T1 construct: recombinant BACE1 protein in a final concentration of 1 μg/ml
Description: (§1) BACE1 Biochemical FRET Based Assay
(§2) This assay is a Fluorescence Resonance Energy Transfer Assay (FRET) based assay. The substrate for this assay is an APP derived 13 amino acids peptide that contains the ‘Swedish’ Lys-Met/Asn-Leu mutation of the amyloid precursor protein (APP) beta-secretase cleavage site. This substrate also contains two fluorophores: (7-methoxycoumarin-4-yl) acetic acid (Mca) is a fluorescent donor with excitation wavelength at 320 nm and emission at 405 nm and 2,4-Dinitrophenyl (Dnp) is a proprietary quencher acceptor. […] Upon cleavage by BACE1, the fluorophore Mca is separated from the quenching group Dnp, restoring the full fluorescence yield of the donor. The increase in fluorescence is linearly related to the rate of proteolysis.
Briefly in a 384-well format recombinant BACE1 protein in a final concentration of 0.04 μg/ml is incubated for 450 minutes at room temperature with 20 μM substrate in incubation buffer (50 mM Citrate buffer pH 5.0, 0.05% PEG) in the presence of compound or DMSO. Next the amount of proteolysis is directly measured by fluorescence measurement (excitation at 320 nm and emission at 405 nm) at different incubation times (0, 30, 60, 90, 120 and 450 min). For every experiment a time curve (every 30 min between 0 min and 120 min) is used to determine the time where we find the lowest basal signal of the high control. The signal at this time (Tx) is used to subtract from the signal at 450 min. Results are expressed in RFU, as difference between T450 and Tx.
(§3) A best-fit curve is fitted by a minimum sum of squares method to the plot of % Controlmin versus compound concentration. From this an IC50 value (inhibitory concentration causing 50% inhibition of activity) can be obtained.

[2] = system: Abeta 1-42 produced and secreted by SKNBE2 cells expressing hAPP695; assay: Cellular αLisa assay in SKNBE2 cells - Abeta 42; format: cell-based, human; conditions: Homo sapiens, incubated for 18 hours, read-out: Cellular αLisa assay in SKNBE2 cells Abeta 42 pIC50 (converted)
Description: (§4) Cellular αLisa Assay in SKNBE2 Cells
(§5) In two αLisa assays the levels of Abeta total and Abeta 1-42 produced and secreted into the medium of human neuroblastoma SKNBE2 cells are quantified. The assay is based on the human neuroblastoma SKNBE2 expressing the wild type Amyloid Precursor Protein (hAPP695). The compounds are diluted and added to these cells, incubated for 18 hours and then measurements of Abeta 1-42 and Abeta total are taken. Abeta total and Abeta 1-42 are measured by sandwich αLisa. αLisa is a sandwich assay using biotinylated antibody AbN/25 attached to streptavidin coated beads and antibody Ab4G8 or cAb42/26 conjugated acceptor beads for the detection of Abeta total and Abeta 1-42 respectively. In the presence of Abeta total or Abeta 1-42, the beads come into close proximity. The excitation of the donor beads provokes the release of singlet oxygen molecules that trigger a cascade of energy transfer in the acceptor beads, resulting in light emission. Light emission is measured after 1 hour incubation (excitation at […] and emission at 615 nm).
as §3

[3] = system: Abeta total produced and secreted by SKNBE2 cells expressing hAPP695; assay: Cellular αLisa assay in SKNBE2 cells - Abeta total; format: cell-based; conditions: Homo sapiens, incubated for 18 hours, read-out: Cellular αLisa assay in SKNBE2 cells Abeta total pIC50 (converted)
Description: as §4, §5, §3

[4] = target: T2, recombinant BACE2 protein (Homo sapiens, UniProt Q9Y5Z0); assay: BACE2 biochemical FRET based assay; conditions: BACE2 0.4 μg/nil, 450 minutes, 10 μM substrate, pH 5.0; read-out: Biochemical FRET based assay pIC50 (BACE2) (converted)
T2 construct: recombinant BACE2 protein in a final concentration of 0.4 μg/nil
T2 sequence (Q9Y5Z0 63-518): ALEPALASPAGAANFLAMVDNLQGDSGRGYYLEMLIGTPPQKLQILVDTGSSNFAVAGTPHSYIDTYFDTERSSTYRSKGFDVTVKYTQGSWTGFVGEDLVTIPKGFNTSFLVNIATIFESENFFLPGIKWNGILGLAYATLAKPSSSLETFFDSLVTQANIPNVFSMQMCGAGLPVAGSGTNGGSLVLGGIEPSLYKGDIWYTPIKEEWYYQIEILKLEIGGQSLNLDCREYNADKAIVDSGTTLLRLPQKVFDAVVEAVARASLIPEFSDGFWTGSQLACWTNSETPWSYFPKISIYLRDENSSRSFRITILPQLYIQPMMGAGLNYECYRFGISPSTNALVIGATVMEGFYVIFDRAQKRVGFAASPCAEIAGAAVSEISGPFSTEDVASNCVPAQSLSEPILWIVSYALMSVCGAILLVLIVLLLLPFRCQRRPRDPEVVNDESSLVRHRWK
Description: BACE2 Biochemical FRET Based Assay
as §2, with “assay” for “assay is an APP derived 13 amino acids peptide that”, “the beta-secretase,” for “BACE1,”
Briefly in a 384-well format recombinant BACE2 protein in a final concentration of […] is incubated for 450 minutes at room temperature with 10 μM substrate in incubation buffer (50 mM Citrate buffer pH 5.0, 0.05% PEG, no DMSO) in the absence or presence of compound. Next the amount of proteolysis is directly measured by fluorescence measurement at T=0 and T=450 (excitation at 320 nm and emission at 405 nm). Results are expressed in RFU (Relative Fluorescence Units), as difference between T450 and T0.
as §3

[5] = target: T1, recombinant BACE1 protein; assay: BACE1 biochemical FRET based assay - Method 1; conditions: BACE1 1 μg/ml, 120 minutes, 10 μm substrate, pH 5.0; read-out: Biochemical FRET based assay - Method 1 pIC50 (converted)
Description: as §1, §2
Briefly in a 384-well format recombinant BACE1 protein in a final concentration of 1 μg/ml is incubated for 120 minutes at room temperature with 10 μm substrate in incubation buffer (40 mM Citrate buffer pH 5.0, 0.04% PEG, 4% DMSO) in the absence or presence of compound. Next the amount of proteolysis is directly measured by fluorescence measurement at T=0 and T=120 (excitation at 320 nm and emission at 405 nm). Results are expressed in RFU (Relative Fluorescence Units), as difference between T120 and T0.
as §3

T1 sequence (P56817 46-501): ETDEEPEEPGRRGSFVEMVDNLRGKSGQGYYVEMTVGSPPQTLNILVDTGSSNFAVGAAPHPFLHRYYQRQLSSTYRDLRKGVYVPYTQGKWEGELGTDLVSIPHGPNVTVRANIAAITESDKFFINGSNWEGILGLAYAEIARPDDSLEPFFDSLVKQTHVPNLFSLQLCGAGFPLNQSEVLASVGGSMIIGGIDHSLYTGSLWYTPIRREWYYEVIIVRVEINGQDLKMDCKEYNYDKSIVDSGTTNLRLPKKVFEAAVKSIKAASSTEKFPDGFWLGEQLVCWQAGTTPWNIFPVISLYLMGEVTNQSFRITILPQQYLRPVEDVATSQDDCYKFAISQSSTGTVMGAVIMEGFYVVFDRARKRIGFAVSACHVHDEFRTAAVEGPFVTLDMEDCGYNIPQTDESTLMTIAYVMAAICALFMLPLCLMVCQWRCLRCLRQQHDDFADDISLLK

Row | IC50 [1] [µM] | IC50 [2] [µM] | IC50 [3] [µM] | IC50 [4] [µM] | melting point [°C] | IC50 [5] [µM] | SMILES
1 | 1.15 | 0.251 | 0.24 | 0.537 | 207.05 |  | Cc1nc(C(=O)Nc2ccc(F)c(C3(C)N=C(N)CC3C(F)(F)F)c2)co1 (racemic) [Compound 16, (±)-N-[3-1[(2S*,3R*)-5-amino-2-methyl-3-(trifluoromethyl)-3,4-dihydropyrrol-2-yl]-4-fluoro-phenyl]-2-methyl-oxazole-4-carboxamide]
2 | 0.49 | 0.1 | 0.129 | 0.912 | 240.62 |  | CC1(c2cc(NC(=O)c3ccc(Cl)cn3)ccc2F)N=C(N)CC1C(F)(F)F (racemic) [Compound 15, (±)-N-(3-((2S*,3R*)-5-amino-2-methyl-3-(trifluoromethyl)-3,4-dihydro-2H-pyrrol-2-yl)-4-fluorophenyl)-5-chloropicolinamide]
3 | 0.324 |  |  |  | 243.4 |  | CC1(c2cc(NC(=O)c3ccc(Br)cn3)ccc2F)N=C(N)CC1C(F)(F)F (racemic) [Compound 40, (±)-N-[3-[(2S*,3R*)-5-amino-2-methyl-3-(trifluoromethyl)-3,4-dihydropyrrol-2-yl]-4-fluoro-phenyl]-5-bromo-pyridine-2-carboxamide]
4 | 0.776 | 0.347 |  | > 10 | 165.48 |  | COCCOc1cnc(C(=O)Nc2ccc(F)c([C@@]3(C)N=C(N)C[C@H]3C(F)(F)F)c2)cn1 (relative stereo) [Compound 23, (±)-N-[3-[(2S*,3R*)-5-amino-2-methyl-3-(trifluoromethyl)-3,4-dihydropyrrol-2-yl]-4-fluoro-phenyl]-5-(2-methoxyethoxy)pyrazine-2-carboxamide]
5 | 0.00617 | 0.0224 | 0.024 | 0.00309 | 139.83 | 0.0389 | C[C@@]1(c2cc(NC(=O)c3ccn(C(F)F)n3)ccc2F)C[C@@H](C(F)(F)F)CC(N)=N1 [Compound 13]
6 | 2.4 | 0.389 |  | 0.933 | 184.2 |  | COc1cccnc1Nc1ccc(F)c(C2(C)N=C(N)CC2C(F)(F)F)c1 (racemic) [Compound 21, (+)-N-[3-[(2S*,3R*)-5-amino-2-methyl-3-(trifluoromethyl)-3,4-dihydropyrrol-2-yl]-4-fluoro-phenyl]-3-methoxy-pyridin-2-amine]

More lines, now with the values behind:

Row | SMILES | IC50 [1] [µM] | IC50 [2] [µM] | IC50 [3] [µM] | IC50 [4] [µM] | melting point [°C] | IC50 [5] [µM]
7 | C[C@@]1(c2cc(NC(=O)c3ccc(F)cn3)ccc2F)C[C@@H](C(F)(F)F)CC(N)=N1 [Compound 12] | 0.0155 | 0.00759 | 0.00776 | 0.0107 | 199.22 | 0.0513
8 | COc1cnc(C(=O)Nc2cccc([C@]3(C)C[C@@H](C(F)(F)F)CC(N)=N3)c2)cn1 [Compound 3, N-{3-[(2S,4R)-6-amino-2-methyl-4-(trifluoromethyl)-2,3,4,5-tetrahydropyridin-2-yl]phenyl}-5-methoxypyrazine-2-carboxamide] | 0.0251 | 0.00955 | 0.00871 | 0.339 | 171.93 | 0.0316
9 | C[C@@]1(c2cc(NC(=O)c3ccc(C#N)cn3)ccc2F)C[C@@H](C(F)(F)F)CC(N)=N1 [Compound 10] | 0.00363 | 0.00427 | 0.0038 | 0.0257 | 205.8 | 0.0363
10 | COc1cnc(C(=O)Nc2cccc([C@]3(C)C[C@H](C(F)(F)F)CC(N)=N3)c2)cn1 [Compound 4, N-{3-[(2S,4S)-6-amino-2-methyl-4-(trifluoromethyl)-2,3,4,5-tetrahydropyridin-2-yl]phenyl}-5-methoxypyrazine-2-carboxamide] | > 10 | 2.34 | 1.95 | > 10 | 138.66 | > 30.2
